Like-named read-outs stand apart in the source and are kept apart here.
Columns and labels:
PI3K-γ = PI3K-γ (Homo sapiens, UniProt P48736); assay: PI3K-gamma fluorescence polarization assay
Human mTOR (FLAG-TOR) = Human mTOR (FLAG-TOR) (Homo sapiens, UniProt P42345); assay: mTOR kinase assay (DELFIA format, purified enzyme); format: biochemical; conditions: read-out: IC50 mTOR
PI3K-α = PI3K-α (Homo sapiens, UniProt P42336); assay: PI3K-alpha fluorescence polarization assay; conditions: read-out: IC50 PI3Kα
Chain of PI3K-α (P42336 whole entry, species assumed): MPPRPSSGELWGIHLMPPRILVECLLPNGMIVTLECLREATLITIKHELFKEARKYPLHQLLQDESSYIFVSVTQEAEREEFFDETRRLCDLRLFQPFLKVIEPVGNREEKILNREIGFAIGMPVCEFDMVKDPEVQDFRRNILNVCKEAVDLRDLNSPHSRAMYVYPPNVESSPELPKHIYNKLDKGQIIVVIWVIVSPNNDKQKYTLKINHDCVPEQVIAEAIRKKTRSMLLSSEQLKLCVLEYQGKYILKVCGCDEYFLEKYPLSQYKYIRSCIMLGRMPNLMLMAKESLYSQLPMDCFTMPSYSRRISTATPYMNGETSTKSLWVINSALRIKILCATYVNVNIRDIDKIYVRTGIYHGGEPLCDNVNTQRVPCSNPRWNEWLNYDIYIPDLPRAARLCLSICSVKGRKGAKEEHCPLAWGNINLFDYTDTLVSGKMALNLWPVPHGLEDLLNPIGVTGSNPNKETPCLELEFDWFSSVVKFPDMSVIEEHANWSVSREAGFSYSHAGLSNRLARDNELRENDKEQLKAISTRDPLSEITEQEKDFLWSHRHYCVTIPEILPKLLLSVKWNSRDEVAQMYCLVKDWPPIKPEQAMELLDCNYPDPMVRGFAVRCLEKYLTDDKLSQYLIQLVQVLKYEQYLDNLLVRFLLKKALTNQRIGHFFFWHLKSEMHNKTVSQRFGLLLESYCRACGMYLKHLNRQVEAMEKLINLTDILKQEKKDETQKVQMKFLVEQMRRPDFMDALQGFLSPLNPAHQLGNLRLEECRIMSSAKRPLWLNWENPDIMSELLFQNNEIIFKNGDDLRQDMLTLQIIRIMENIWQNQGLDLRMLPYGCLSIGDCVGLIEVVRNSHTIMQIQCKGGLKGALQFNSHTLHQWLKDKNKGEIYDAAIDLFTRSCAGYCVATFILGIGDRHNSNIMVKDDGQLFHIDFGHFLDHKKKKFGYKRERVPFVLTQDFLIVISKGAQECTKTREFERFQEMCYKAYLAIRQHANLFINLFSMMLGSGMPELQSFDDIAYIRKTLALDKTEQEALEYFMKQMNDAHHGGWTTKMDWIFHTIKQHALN
Chain of PI3K-α (P27986 whole entry partner, species assumed): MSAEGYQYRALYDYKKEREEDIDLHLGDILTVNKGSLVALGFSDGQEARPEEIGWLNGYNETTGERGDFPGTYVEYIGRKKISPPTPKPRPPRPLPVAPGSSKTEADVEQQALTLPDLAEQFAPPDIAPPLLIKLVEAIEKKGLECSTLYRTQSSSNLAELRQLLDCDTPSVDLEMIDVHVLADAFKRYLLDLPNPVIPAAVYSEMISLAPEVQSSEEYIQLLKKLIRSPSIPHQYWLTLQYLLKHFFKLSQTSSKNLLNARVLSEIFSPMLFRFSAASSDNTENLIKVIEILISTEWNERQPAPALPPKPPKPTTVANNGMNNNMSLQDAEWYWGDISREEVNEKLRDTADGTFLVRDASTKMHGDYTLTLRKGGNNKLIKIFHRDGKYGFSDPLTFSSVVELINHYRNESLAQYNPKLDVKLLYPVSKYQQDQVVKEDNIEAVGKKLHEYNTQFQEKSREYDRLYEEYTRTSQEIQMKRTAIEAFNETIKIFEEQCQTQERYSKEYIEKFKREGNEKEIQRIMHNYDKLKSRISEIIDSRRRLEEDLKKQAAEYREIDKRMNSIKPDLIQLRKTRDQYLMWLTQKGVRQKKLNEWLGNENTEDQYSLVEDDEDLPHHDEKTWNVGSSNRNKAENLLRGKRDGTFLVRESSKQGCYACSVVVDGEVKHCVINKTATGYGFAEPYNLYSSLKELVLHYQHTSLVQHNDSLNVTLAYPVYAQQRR

[1] = tested on: human prostate LNCap tumor cell line; assay: In vitro cell culture growth assay (MTS), LNCap; conditions: Homo sapiens, LNCaP, 72 h, read-out: IC50 LNCap

Chain of Human mTOR (FLAG-TOR) (P42345 1360-2549 limits assumed): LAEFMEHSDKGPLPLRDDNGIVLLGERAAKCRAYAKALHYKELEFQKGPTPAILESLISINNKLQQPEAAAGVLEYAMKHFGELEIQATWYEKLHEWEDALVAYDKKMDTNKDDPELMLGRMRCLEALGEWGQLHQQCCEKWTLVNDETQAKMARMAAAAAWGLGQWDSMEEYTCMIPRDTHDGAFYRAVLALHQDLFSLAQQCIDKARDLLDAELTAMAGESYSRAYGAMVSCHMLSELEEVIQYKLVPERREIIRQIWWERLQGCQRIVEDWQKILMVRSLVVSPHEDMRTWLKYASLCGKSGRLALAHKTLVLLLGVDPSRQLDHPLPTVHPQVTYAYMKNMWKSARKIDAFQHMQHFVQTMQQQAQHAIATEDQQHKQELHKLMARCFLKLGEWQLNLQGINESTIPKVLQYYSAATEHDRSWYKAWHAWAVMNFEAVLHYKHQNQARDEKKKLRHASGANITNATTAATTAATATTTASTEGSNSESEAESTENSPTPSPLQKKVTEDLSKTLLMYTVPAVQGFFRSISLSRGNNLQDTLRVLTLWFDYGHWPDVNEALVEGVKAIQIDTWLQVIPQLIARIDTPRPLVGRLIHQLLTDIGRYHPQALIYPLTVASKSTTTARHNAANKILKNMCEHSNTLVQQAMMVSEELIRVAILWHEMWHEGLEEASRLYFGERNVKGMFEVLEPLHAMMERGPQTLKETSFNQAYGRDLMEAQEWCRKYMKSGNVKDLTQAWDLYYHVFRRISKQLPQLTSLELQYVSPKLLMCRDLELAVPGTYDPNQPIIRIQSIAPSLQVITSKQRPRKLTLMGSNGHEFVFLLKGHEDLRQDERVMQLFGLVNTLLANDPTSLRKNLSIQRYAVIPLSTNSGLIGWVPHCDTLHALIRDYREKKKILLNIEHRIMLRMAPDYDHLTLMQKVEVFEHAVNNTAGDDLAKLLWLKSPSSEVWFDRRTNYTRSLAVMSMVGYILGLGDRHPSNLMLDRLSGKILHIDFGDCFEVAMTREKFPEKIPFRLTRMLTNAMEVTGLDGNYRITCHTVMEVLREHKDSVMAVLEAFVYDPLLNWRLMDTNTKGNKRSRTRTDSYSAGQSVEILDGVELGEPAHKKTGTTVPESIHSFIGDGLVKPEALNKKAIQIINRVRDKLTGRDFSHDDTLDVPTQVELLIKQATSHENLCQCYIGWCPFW
Chain of PI3K-γ (P48736 whole entry, species assumed): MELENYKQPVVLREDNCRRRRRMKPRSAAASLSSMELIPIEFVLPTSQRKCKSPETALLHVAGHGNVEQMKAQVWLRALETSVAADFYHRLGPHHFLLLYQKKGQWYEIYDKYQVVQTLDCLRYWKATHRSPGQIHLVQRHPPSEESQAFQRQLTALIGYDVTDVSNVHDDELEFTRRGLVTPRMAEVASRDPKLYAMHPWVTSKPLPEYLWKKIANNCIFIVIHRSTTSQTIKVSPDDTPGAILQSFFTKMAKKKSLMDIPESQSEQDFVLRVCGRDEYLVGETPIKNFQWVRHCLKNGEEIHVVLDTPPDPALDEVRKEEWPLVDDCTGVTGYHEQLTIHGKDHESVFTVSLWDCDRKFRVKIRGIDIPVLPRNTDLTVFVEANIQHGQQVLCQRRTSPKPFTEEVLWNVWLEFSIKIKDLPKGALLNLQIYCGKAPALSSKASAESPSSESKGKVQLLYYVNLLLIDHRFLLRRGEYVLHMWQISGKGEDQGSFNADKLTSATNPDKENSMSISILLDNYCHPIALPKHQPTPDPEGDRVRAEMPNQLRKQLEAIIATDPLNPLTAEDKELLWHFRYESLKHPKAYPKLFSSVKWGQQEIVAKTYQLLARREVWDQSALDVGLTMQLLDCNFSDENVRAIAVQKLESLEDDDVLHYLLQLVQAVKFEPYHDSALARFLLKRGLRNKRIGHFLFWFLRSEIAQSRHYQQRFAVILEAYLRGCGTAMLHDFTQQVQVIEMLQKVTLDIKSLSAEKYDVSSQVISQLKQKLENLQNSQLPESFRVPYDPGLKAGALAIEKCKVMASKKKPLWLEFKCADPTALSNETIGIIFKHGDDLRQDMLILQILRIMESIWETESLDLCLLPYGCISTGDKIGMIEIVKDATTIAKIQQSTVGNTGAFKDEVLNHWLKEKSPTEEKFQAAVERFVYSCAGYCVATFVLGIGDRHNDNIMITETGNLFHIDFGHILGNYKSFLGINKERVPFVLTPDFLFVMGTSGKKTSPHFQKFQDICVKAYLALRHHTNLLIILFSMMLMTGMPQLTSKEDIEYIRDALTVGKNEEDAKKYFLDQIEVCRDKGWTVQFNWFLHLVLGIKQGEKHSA

## CC(C)Nc1nc(-c2ccc(NC(=O)Nc3cccnc3)cc2)nc(N2C3CCC2COC3)n1 [Example 376, 1-(4-(4-(3-oxa-8-azabicyclo[3.2.1]octan-8-yl)-6-(isopropylamino)-1,3,5-triazin-2-yl)phenyl)-3-(pyridin-3-yl)urea]
PI3K-γ
  IC50: > 10000 nM
Human mTOR (FLAG-TOR)
  IC50: 2.3 nM
PI3K-α
  IC50: 2600 nM
[1]
  IC50: 50 nM

## CC(C)Nc1nc(-c2ccc(NC(=O)Nc3ccncc3)cc2)nc(N2C3CCC2COC3)n1 [Example 377, 1-(4-(4-(3-oxa-8-azabicyclo[3.2.1]octan-8-yl)-6-(isopropylamino)-1,3,5-triazin-2-yl)phenyl)-3-(pyridin-4-yl)urea]
PI3K-γ; read-out: IC50 PI3Kγ
  IC50: 4720 nM
Human mTOR (FLAG-TOR)
  IC50: 3.9 nM
PI3K-α
  IC50: 2610 nM
[1]
  IC50: 90 nM

## CC(C)Nc1nc(-c2ccc(NC(=O)Nc3ccc(CN4CCN(C)CC4)cc3)cc2)nc(N2C3CCC2COC3)n1 [Example 379, 1-(4-(4-(3-oxa-8-azabicyclo[3.2.1]octan-8-yl)-6-(isopropylamino)-1,3,5-triazin-2-yl)phenyl)-3-(4-((4-methylpiperazin-1-yl)methyl)phenyl)urea]
PI3K-γ; read-out: IC50 PI3Kγ
  IC50: 5260 nM
Human mTOR (FLAG-TOR)
  IC50: 7.3 nM
PI3K-α
  IC50: 4750 nM
[1]
  IC50: 140 nM

## CC(C)Nc1nc(-c2ccc(NC(=O)Nc3ccc(CN4CCNCC4)cc3)cc2)nc(N2C3CCC2COC3)n1 [Example 380, 1-(4-(4-(3-oxa-8-azabicyclo[3.2.1]octan-8-yl)-6-(isopropylamino)-1,3,5-triazin-2-yl)phenyl)-3-(4-(piperazin-1-ylmethyl)phenyl)urea]
PI3K-γ; read-out: IC50 PI3Kγ
  IC50: 3560 nM
Human mTOR (FLAG-TOR)
  IC50: 5.1 nM
PI3K-α
  IC50: 3340 nM
[1]
  IC50: 300 nM

## CC(C)Nc1nc(-c2ccc(NC(=O)Nc3ccc(CN(C)C)cc3)cc2)nc(N2C3CCC2COC3)n1 [Example 381, 1-(4-(4-(3-oxa-8-azabicyclo[3.2.1]octan-8-yl)-6-(isopropylamino)-1,3,5-triazin-2-yl)phenyl)-3-(4-((dimethylamino)methyl)phenyl)urea]
PI3K-γ; read-out: IC50 PI3Kγ
  IC50: 5400 nM
Human mTOR (FLAG-TOR)
  IC50: 5.9 nM
PI3K-α
  IC50: 2960 nM
[1]
  IC50: 140 nM

## CC(C)Nc1nc(-c2ccc(NC(=O)Nc3ccc(CN)cc3)cc2)nc(N2C3CCC2COC3)n1 [Example 382, 1-(4-(4-(3-oxa-8-azabicyclo[3.2.1]octan-8-yl)-6-(isopropylamino)-1,3,5-triazin-2-yl)phenyl)-3-(4-(aminomethyl)phenyl)urea]
PI3K-γ; read-out: IC50 PI3Kγ
  IC50: 4310 nM
Human mTOR (FLAG-TOR)
  IC50: 4.5 nM
PI3K-α
  IC50: 522 nM
[1]
  IC50: 48 nM

## CC(C)Nc1nc(-c2ccc(NC(=O)Nc3ccc(CN4CCCC4)cc3)cc2)nc(N2C3CCC2COC3)n1 [Example 383, 1-(4-(4-(3-oxa-8-azabicyclo[3.2.1]octan-8-yl)-6-(isopropylamino)-1,3,5-triazin-2-yl)phenyl)-3-(4-(pyrrolidin-1-ylmethyl)phenyl)urea]
PI3K-γ; read-out: IC50 PI3Kγ
  IC50: 3610 nM
Human mTOR (FLAG-TOR)
  IC50: 6.1 nM
PI3K-α
  IC50: 2980 nM
[1]
  IC50: 150 nM

## CC(C)Nc1nc(-c2ccc(NC(=O)Nc3ccc(OCCN4CCCC4)cc3)cc2)nc(N2C3CCC2COC3)n1 [Example 384, 1-(4-(4-(3-oxa-8-azabicyclo[3.2.1]octan-8-yl)-6-(isopropylamino)-1,3,5-triazin-2-yl)phenyl)-3-(4-(2-(pyrrolidin-1-yl)ethoxy)phenyl)urea]
PI3K-γ; read-out: IC50 PI3Kγ
  IC50: 5380 nM
Human mTOR (FLAG-TOR)
  IC50: 6.4 nM
PI3K-α
  IC50: 4220 nM
[1]
  IC50: 50 nM

## CC(C)Nc1nc(-c2ccc(NC(=O)Nc3ccc(OCCN(C)C)cc3)cc2)nc(N2C3CCC2COC3)n1 [Example 385, 1-(4-(4-(3-oxa-8-azabicyclo[3.2.1]octan-8-yl)-6-(isopropylamino)-1,3,5-triazin-2-yl)phenyl)-3-(4-(2-(dimethylamino)ethoxy)phenyl)urea]
PI3K-γ; read-out: IC50 PI3Kγ
  IC50: 4690 nM
Human mTOR (FLAG-TOR)
  IC50: 5.7 nM
PI3K-α
  IC50: 3400 nM
[1]
  IC50: 70 nM

## CC(C)Nc1nc(-c2ccc(NC(=O)Nc3ccc(N4CCNCC4)cc3)cc2)nc(N2C3CCC2COC3)n1 [Example 387, 1-(4-(4-(3-oxa-8-azabicyclo[3.2.1]octan-8-yl)-6-(isopropylamino)-1,3,5-triazin-2-yl)phenyl)-3-(4-(piperazin-1-yl)phenyl)urea]
PI3K-γ; read-out: IC50 PI3Kγ
  IC50: 2860 nM
Human mTOR (FLAG-TOR)
  IC50: 3.2 nM
PI3K-α
  IC50: 3420 nM
[1]
  IC50: 70 nM

## CC(C)Nc1nc(-c2ccc(NC(=O)Nc3ccc(N4CCC(N(C)C)CC4)cc3)cc2)nc(N2C3CCC2COC3)n1 [Example 388, 1-(4-(4-(3-oxa-8-azabicyclo[3.2.1]octan-8-yl)-6-(isopropylamino)-1,3,5-triazin-2-yl)phenyl)-3-(4-(4-(dimethylamino)piperidin-1-yl)phenyl)urea]
PI3K-γ; read-out: IC50 PI3Kγ
  IC50: 4280 nM
Human mTOR (FLAG-TOR)
  IC50: 4.8 nM
PI3K-α
  IC50: 3450 nM
[1]
  IC50: 110 nM

## CC(C)N(C)c1nc(-c2ccc(NC(=O)Nc3ccc(CN(C)C)cc3)cc2)nc(N2C3CCC2COC3)n1 [Example 390, 1-(4-(4-(3-oxa-8-azabicyclo[3.2.1]octan-8-yl)-6-(isopropyl(methyl)amino)-1,3,5-triazin-2-yl)phenyl)-3-(4-((dimethylamino)methyl)phenyl)urea]
PI3K-γ; read-out: IC50 PI3Kγ
  IC50: 2350 nM
Human mTOR (FLAG-TOR)
  IC50: 12 nM
PI3K-α
  IC50: 2470 nM
[1]
  IC50: 650 nM

## CC(C)N(C)c1nc(-c2ccc(NC(=O)Nc3ccc(OCCN(C)C)cc3)cc2)nc(N2C3CCC2COC3)n1 [Example 391, 1-(4-(4-(3-oxa-8-azabicyclo[3.2.1]octan-8-yl)-6-(isopropyl(methyl)amino)-1,3,5-triazin-2-yl)phenyl)-3-(4-(2-(dimethylamino)ethoxy)phenyl)urea]
PI3K-γ; read-out: IC50 PI3Kγ
  IC50: 4000 nM
Human mTOR (FLAG-TOR)
  IC50: 9.6 nM
PI3K-α
  IC50: 2400 nM
[1]
  IC50: 300 nM

## O=C(Nc1ccc(-c2nc(N3CCSCC3)nc(N3C4CCC3COC4)n2)cc1)Nc1cccnc1 [Example 392, 1-(4-(4-(3-oxa-8-azabicyclo[3.2.1]octan-8-yl)-6-thiomorpholino-1,3,5-triazin-2-yl)phenyl)-3-(pyridin-3-yl)urea]
PI3K-γ; read-out: IC50 PI3Kγ
  IC50: 2780 nM
Human mTOR (FLAG-TOR)
  IC50: 5.5 nM
PI3K-α
  IC50: 1180 nM
[1]
  IC50: 480 nM

## O=C(Nc1ccncc1)Nc1ccc(-c2nc(N3CCSCC3)nc(N3C4CCC3COC4)n2)cc1 [Example 393, 1-(4-(4-(3-oxa-8-azabicyclo[3.2.1]octan-8-yl)-6-thiomorpholino-1,3,5-triazin-2-yl)phenyl)-3-(pyridin-4-yl)urea]
PI3K-γ; read-out: IC50 PI3Kγ
  IC50: 1540 nM
Human mTOR (FLAG-TOR)
  IC50: 3.6 nM
PI3K-α
  IC50: 444 nM
[1]
  IC50: 580 nM

## CN(C)Cc1ccc(NC(=O)Nc2ccc(-c3nc(N4CCSCC4)nc(N4C5CCC4COC5)n3)cc2)cc1 [Example 395, 1-(4-(4-(3-oxa-8-azabicyclo[3.2.1]octan-8-yl)-6-thiomorpholino-1,3,5-triazin-2-yl)phenyl)-3-(4-((dimethylamino)methyl)phenyl)urea]
PI3K-γ; read-out: IC50 PI3Kγ
  IC50: 2220 nM
Human mTOR (FLAG-TOR)
  IC50: 14 nM
PI3K-α
  IC50: 584 nM
[1]
  IC50: 590 nM

## C[C@@H]1COCCN1c1nc(-c2ccc(NC(=O)Nc3cccnc3)cc2)nc(N2CCOC[C@H]2C)n1 [Example 398, 1-(4-(4,6-bis((R)-3-methylmorpholino)-1,3,5-triazin-2-yl)phenyl)-3-(pyridin-3-yl)urea]
PI3K-γ; read-out: IC50 PI3Kγ
  IC50: 3910 nM
Human mTOR (FLAG-TOR)
  IC50: 0.21 nM
PI3K-α
  IC50: 644 nM
[1]
  IC50: 12 nM

## C[C@@H]1COCCN1c1nc(-c2ccc(NC(=O)Nc3ccc(N4CCN(C)CC4)cc3)cc2)nc(N2CCOC[C@H]2C)n1 [Example 399, 1-(4-(4,6-bis((R)-3-methylmorpholino)-1,3,5-triazin-2-yl)phenyl)-3-(4-(4-methylpiperazin-1-yl)phenyl)urea]
PI3K-γ; read-out: IC50 PI3Kγ
  IC50: 1690 nM
Human mTOR (FLAG-TOR)
  IC50: 1.1 nM
PI3K-α
  IC50: 330 nM
[1]
  IC50: 3 nM

## C[C@@H]1COCCN1c1nc(-c2ccc(NC(=O)Nc3ccc(CN(C)C)cc3)cc2)nc(N2CCOC[C@H]2C)n1 [Example 401, 1-(4-(4,6-bis((R)-3-methylmorpholino)-1,3,5-triazin-2-yl)phenyl)-3-(4-((dimethylamino)methyl)phenyl)urea]
PI3K-γ; read-out: IC50 PI3Kγ
  IC50: 3250 nM
Human mTOR (FLAG-TOR)
  IC50: 2 nM
PI3K-α
  IC50: 413 nM
[1]
  IC50: 21 nM

## C[C@@H]1COCCN1c1nc(-c2ccc(NC(=O)Nc3ccc(OCCN(C)C)cc3)cc2)nc(N2CCOC[C@H]2C)n1 [Example 402, 1-(4-(4,6-bis((R)-3-methylmorpholino)-1,3,5-triazin-2-yl)phenyl)-3-(4-(2-(dimethylamino)ethoxy)phenyl)urea]
PI3K-γ; read-out: IC50 PI3Kγ
  IC50: 3640 nM
Human mTOR (FLAG-TOR)
  IC50: 1.8 nM
PI3K-α
  IC50: 543 nM
[1]
  IC50: 7 nM

## C[C@@H]1COCCN1c1nc(-c2ccc(NC(=O)Nc3ccc(OCCN4CCCC4)cc3)cc2)nc(N2CCOC[C@H]2C)n1 [Example 403, 1-(4-(4,6-bis((R)-3-methylmorpholino)-1,3,5-triazin-2-yl)phenyl)-3-(4-(2-(pyrrolidin-1-yl)ethoxy)phenyl)urea]
PI3K-γ; read-out: IC50 PI3Kγ
  IC50: 2380 nM
Human mTOR (FLAG-TOR)
  IC50: 0.75 nM
PI3K-α
  IC50: 314 nM
[1]
  IC50: 8 nM

## O=C(Nc1ccncc1)Nc1ccc(-c2nc(C3=CCOCC3)nc(N3C4CCC3COC4)n2)cc1 [Example 404, 1-(4-(4-(3-oxa-8-azabicyclo[3.2.1]octan-8-yl)-6-(3,6-dihydro-2H-pyran-4-yl)-1,3,5-triazin-2-yl)phenyl)-3-(pyridin-4-yl)urea]
PI3K-γ; read-out: IC50 PI3Kγ
  IC50: 433 nM
Human mTOR (FLAG-TOR)
  IC50: 0.69 nM
PI3K-α
  IC50: 63 nM
[1]
  IC50: 60 nM

## O=C(Nc1ccncc1)Nc1ccc(-c2nc(C3CCOCC3)nc(N3C4CCC3COC4)n2)cc1 [Example 406, 1-(4-(4-(3-oxa-8-azabicyclo[3.2.1]octan-8-yl)-6-(tetrahydro-2H-pyran-4-yl)-1,3,5-triazin-2-yl)phenyl)-3-(pyridin-4-yl)urea]
PI3K-γ; read-out: IC50 PI3Kγ
  IC50: 1880 nM
Human mTOR (FLAG-TOR)
  IC50: 0.38 nM
PI3K-α
  IC50: 478 nM
[1]
  IC50: 2.4 nM

## CN(C)Cc1ccc(NC(=O)Nc2ccc(-c3nc(C4CCOCC4)nc(N4C5CCC4COC5)n3)cc2)cc1 [Example 409, 1-(4-(4-(3-oxa-8-azabicyclo[3.2.1]octan-8-yl)-6-(tetrahydro-2H-pyran-4-yl)-1,3,5-triazin-2-yl)phenyl)-3-(4-((dimethylamino)methyl)phenyl)urea]
PI3K-γ; read-out: IC50 PI3Kγ
  IC50: 4490 nM
Human mTOR (FLAG-TOR)
  IC50: 1.5 nM
PI3K-α
  IC50: 856 nM
[1]
  IC50: 50 nM
